This test addresses Collagenase 3 (Homo sapiens) (UniProt P45452). The test is described as follows: MMP13 activity inhibition curves – biochemical, dose response (AID 735). To be noted: recombinant MMP13 enzymatic activity assay.

Structures are written as SMILES. Calls of active or inactive are those of the source. No rule for the calls is given here.

The IC50 is the point on the concentration scale where inhibition reaches its midpoint. Consider `COc1cc(-n2nc(C)c3c2OC(N)=C(C#N)C3c2ccccc2)c(Cl)c(Br)c1O` (configuration not stated), for which the IC50 was > 39.8 µM (inactive).
As for `CCOC(=O)/C(C#N)=C1/C=Nc2ccccc2N1`, the IC50 result was “inactive”.

Values taken from PubChem BioAssay AID735 (The Scripps Research Institute Molecular Screening Center, 2007).
